Source: ChEMBL document CHEMBL1122468, “Synthesis of (7R)-7H-indolo[3,4-gh][1,4]benzoxazines, a new class of D-heteroergolines with dopamine agonist activity” (J Med Chem, 1983)

Assays:
Dopamine receptor = test: In vitro affinity for dopamine receptor by displacement of [3H]- apomorphine in rat striatal membranes; format: cell membranes, Membrane
[1] = biological target: T1, Cerebral cortex alpha adrenergic receptor (Bos taurus, UniProt Q28838+P18130); test: In vitro affinity for alpha adrenergic receptor by displacement of 3[H]clonidine in calf cerebral cortex; format: tissue-based
T1 sequence (Q28838 whole entry): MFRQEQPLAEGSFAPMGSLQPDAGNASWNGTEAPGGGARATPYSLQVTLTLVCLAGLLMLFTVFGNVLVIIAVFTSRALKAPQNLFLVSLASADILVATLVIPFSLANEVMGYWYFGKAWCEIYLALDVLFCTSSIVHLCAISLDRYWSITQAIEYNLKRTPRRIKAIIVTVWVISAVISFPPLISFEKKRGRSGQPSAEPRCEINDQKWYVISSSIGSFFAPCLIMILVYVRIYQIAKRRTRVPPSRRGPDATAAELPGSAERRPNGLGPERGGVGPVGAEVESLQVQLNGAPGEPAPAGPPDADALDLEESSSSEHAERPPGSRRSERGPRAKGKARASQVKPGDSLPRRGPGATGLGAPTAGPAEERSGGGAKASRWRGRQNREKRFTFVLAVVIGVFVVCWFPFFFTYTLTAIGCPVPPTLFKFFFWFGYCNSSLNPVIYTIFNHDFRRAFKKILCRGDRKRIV
T1 sequence (P18130 whole entry): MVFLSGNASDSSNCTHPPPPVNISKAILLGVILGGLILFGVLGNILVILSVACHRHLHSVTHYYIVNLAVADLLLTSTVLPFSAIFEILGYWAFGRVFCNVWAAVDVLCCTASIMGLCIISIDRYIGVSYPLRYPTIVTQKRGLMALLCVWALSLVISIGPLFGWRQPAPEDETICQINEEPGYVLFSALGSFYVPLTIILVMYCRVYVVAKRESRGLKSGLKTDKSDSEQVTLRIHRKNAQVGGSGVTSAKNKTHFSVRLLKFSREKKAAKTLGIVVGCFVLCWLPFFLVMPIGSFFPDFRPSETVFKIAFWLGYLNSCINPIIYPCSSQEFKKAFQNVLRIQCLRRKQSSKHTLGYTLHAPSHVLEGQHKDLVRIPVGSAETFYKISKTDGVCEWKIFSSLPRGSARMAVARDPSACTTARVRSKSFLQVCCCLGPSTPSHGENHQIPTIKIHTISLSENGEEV

Rattus norvegicus = test: In vivo measure of dopaminergic activity by the induction of contralateral turning behavior in 6-hydroxydopamine (6-OHDA) lesioned rats, ip; format: functional
[2] = Rattus norvegicus, ip, read-out: ED50

**Q.** Which results are given for `CCCCN1CCO[C@@H]2c3cccc4[nH]cc(c34)C[C@H]21`?
**A.** IC50 (Dopamine receptor): 33 nM; IC50 [1]: 46 nM; ED50 (Rattus norvegicus; [2]): 1.1 mg/kg

**Q.** What does the source list for `CCN1CCO[C@@H]2c3cccc4[nH]cc(c34)C[C@H]21` (stereo in doubt; (-)6b)?
**A.** IC50 (Dopamine receptor): 2 nM; IC50 [1]: 7 nM; ED50 (Rattus norvegicus): 0.027 mg/kg

**Q.** How did the IC50 (Dopamine receptor) turn out when `C=CCN1CCO[C@@H]2c3cccc4[nH]cc(c34)C[C@H]21` was run?
**A.** 23 nM

**Q.** What about the IC50 [1] of the same compound?
**A.** 206 nM

**Q.** What about the ED50 (Rattus norvegicus; [2]) of the same compound?
**A.** 0.15 mg/kg

**Q.** With `CCN1CCO[C@@H]2c3cccc4[nH]cc(c34)C[C@H]21` (relative stereo) as the compound, how does the IC50 (Dopamine receptor) read?
**A.** 1240 nM

**Q.** What about the IC50 [1] of the same compound?
**A.** 1354 nM

**Q.** What about the ED50 (Rattus norvegicus) of the same compound?
**A.** >5 mg/kg

**Q.** How did the IC50 (Dopamine receptor) turn out when `c1cc2c3c(c[nH]c3c1)C[C@H]1NCCO[C@H]21` was run?
**A.** 59.6 nM

**Q.** What about the IC50 [1] of the same compound?
**A.** 55 nM

**Q.** And the ED50 (Rattus norvegicus; [2])?
**A.** 0.76 mg/kg

**Q.** Which results are given for `CN1CCO[C@@H]2c3cccc4[nH]cc(c34)C[C@H]21`?
**A.** IC50 (Dopamine receptor): 28.9 nM; IC50 [1]: 27 nM; ED50 (Rattus norvegicus; [2]): 0.18 mg/kg

**Q.** With `CCN1CCO[C@@H]2c3cccc4[nH]cc(c34)C[C@H]21` (stereo in doubt; (+)6b) as the compound, how does the IC50 (Dopamine receptor) read?
**A.** 219 nM

**Q.** What about the IC50 [1] of the same compound?
**A.** 34 nM

**Q.** And the ED50 (Rattus norvegicus)?
**A.** 7.5 mg/kg

**Q.** `CC(C)C[C@H]1C(=O)N2CCC[C@H]2[C@]2(O)O[C@](NC(=O)[C@@H]3C=C4c5cccc6[nH]c(Br)c(c56)C[C@H]4N(C)C3)(C(C)C)C(=O)N12` [BROMOCRIPTINE] was tested. Which ED50 (Rattus norvegicus; [2]) did it give?
**A.** 2.8 mg/kg

**Q.** `CCN1CCO[C@@H]2c3cccc4[nH]cc(c34)C[C@H]21` (stereo in doubt; 6b) was tested. Which IC50 (Dopamine receptor) did it give?
**A.** 4.65 nM

**Q.** What about the IC50 [1] of the same compound?
**A.** 15 nM

**Q.** What about the ED50 (Rattus norvegicus) of the same compound?
**A.** 0.09 mg/kg

**Q.** Which IC50 (Dopamine receptor) does the source give for `CCCN1CCO[C@@H]2c3cccc4[nH]cc(c34)C[C@H]21` here?
**A.** 2.2 nM

**Q.** And the IC50 [1]?
**A.** 31 nM

**Q.** And the ED50 (Rattus norvegicus; [2])?
**A.** 0.028 mg/kg

**Q.** How did the ED50 (Rattus norvegicus; [2]) turn out when `CCCN1C[C@H](CSC)C[C@@H]2c3cccc4[nH]cc(c34)C[C@H]21` [PERGOLIDE] was run?
**A.** 0.1 mg/kg
